In US10526325B2, “Bicyclic heterocyclic derivatives” (Merck Patent GmbH, priority 2015, dated 2020):
Like-named read-outs stand apart in the source and are kept apart here.

What was measured:
[1] = system: PDH-E1alpha (pSer300) in HEK293T cells; experiment: Cellular immunofluorescence assay, PDH-E1alpha (pSer300) in HEK293T cells; assay type: cell-based, human; conditions: 5 hours incubation, anti-PDH-E1alpha (pSer300) immunofluorescence, read-out: IC50 (cell data)
Description: Cellular Assay for Determination of Compound Activities
Compound activities were determined in a cellular immunofluorescence assay. Human HEK293T cells were seeded into black 384-well plates with clear bottom and grown overnight.
Next day, test compounds were added to the wells and the plates incubated for 5 hours. Following this, cells were fixed with formaldehyde, permeabilised and blocked. The primary antibody, Anti-PDH-E1alpha (pSer300), AP1064 (Merck Millipore) was added and incubated overnight in the plate wells. Next, cells were washed and the secondary antibody, Alexa Fluor 488, goat anti-rabbit ab (A-11008, Invitrogen) was added together with Hoechst 33258 (H3569, Invitrogen) and incubated for 1 hour in the plate wells. Finally, cells were washed and the plates were measured on the laser scanning cytometer acumen hci (TTpLabtech).
The raw data were normalized against a pharmacological inhibitor control and dose response curves were generated by plotting the percent effect values using the software package Genedata screener (Genedata).

[2] = target: human PDHK2 (12-407) (Homo sapiens (Human), UniProt Q15119); experiment: Isothermal titration calorimetry (ITC) binding; conditions: ITC at 30° C., pH 7.5
Description: Isothermal Titration Calorimetry
ITC measurements were performed with a VP-ITC micro calorimeter (Microcal, LLC/GE Healthcare Bio-Sciences Aft Uppsala, Sweden). In general titrations were performed by titrating the protein (50 μM) to the test compound (5 μM) in 12 μl injections. All binding experiments were carried out at 30° C. In general the test compounds were diluted form DMSO stock solutions into the measurement buffer with a maximum final concentration of 1% DMSO. The measurement buffer was 20 mM HEPES, 135 mM KCl, 1 mM TCEP, 2 mM MgCl2, 15 mM NaH2PO4, pH 7.5. The human PDHK2 (12-407) was produced in E. coli as his-tagged protein and purified by affinity chromatography. The tag was removed by side specific proteolysis. Before titration the protein buffer was changed to the measurement buffer containing the same DMSO concentration as the test compound dilution. ITC data analysis was performed using Origin 7 calorimetry software from the same supplier. For most measurements a binding model of one binding site was assumed. According to the applied mathematical model it is possible to calculate the binding constant (KA), the observed binding enthalpy (ΔH^obs) as well as the stoichiometry (N) of the formed complex.
Preceding analysis the raw data was corrected for the heats of dilution by extrapolating from the saturation value from the end of titration. In order to allow for direct comparison between the respective experimental series and protein preparations the protein concentration was corrected by referencing titrations to a well behaved standard inhibitor. The apparent stoichiometry values defined the fraction of binding competent protein and compensated for relative errors in protein concentration measurements. This corrected protein concentration was used to set up ITC experiment series with test compounds. Any deviations from ideal 1:1 stoichiometry observed here were attributed to errors in compound concentration. This nominal compound concentration was corrected as well to achieve 1:1 stoichiometry in the fit.

[3] = target: PDHK2 (Homo sapiens (Human), UniProt Q15119); experiment: Biochemical activity testing of PDHK2: PDC inactivation assay; conditions: human rec PDHK2, porcine heart PDC, 5 μM ATP, read-out: IC50 PDHK2 (enzyme assay)
Description: Biochemical Activity Testing of PDHK2: PDC Inactivation Assay
The biochemical activity assay for PDHK2 is based on the inactivation of PDC through phosphorylation by PDHK2. The assay is run in two steps: the enzymatic PDHK2 reaction in which isolated PDC is phosphorylated by PDHK2 with ATP as co-substrate and the PDC activity assay in which pyruvate and NAD are converted to acetyl-CoA and NADH. The PDC activity correlates to the increase in NADH and thereby is detectable directly via the increasing fluorescence signal (Exc 340 nm, Em 450 nm). Inhibition of PDHK2 results in a lower phosphorylation status and thereby a less decrease in activity of PDC and a stronger increase in NADH fluorescence signal.
The PDC inactivation assay is performed in Greiner 384-well microtiter plates and is used for high throughput screen. 4 μl of PDHK2 (human, rec, Carna Bioscience, 10 ng/μl-137 nM final concentration) and PDC (isolated from porcine heart, Sigma-Aldrich, 20 mU/ml final concentration) are incubated in the absence or presence of the test compound (10 dilution concentrations) for 30 min at room temperature in kinase buffer (15 mM potassium phosphate buffer, pH 7.0, 60 mM KCl, 1.5 mM DTT, 2.5 mM MgCl2, 0.0125% (w/v) BSA, 0.125% Pluronic F-68). The kinase reaction is started by the addition of 4 μl ATP substrate solution (fc 5 μM in kinase buffer). After 30 min incubation at 37° C. 40 μl of PDC reaction solution (100 mM Tris/HCl, pH 7.8, 0.5 mM EDTA, 1 mM MgCl2, 50 mM NaF, 0.25 mM Coenzyme A, 5 mM pyruvate, 1 mM NAD, 5 mM DTT, 1 mM thiamine pyrophosphate) is added. The first fluorescence measurement is performed on a Perkin Elmer Envision (Exc 340 nm, Em 450 nm). The reaction is incubated for 45 min at room temperature. Afterwards a second fluorescence measurement is performed and the PDC activity is calculated by the difference between both measurements. As full value for the PDHK2 assay the inhibitor-free PDHK2 reaction is used. The pharmacological zero value used is DCA (Sigma-Aldrich) in a final concentration of 3 mM. The inhibitory values […] were determined using either the program Symyx Assay Explorer® or Condosseo® from GeneData.

With `C[C@@H]1CN(C(=O)[C@@](C)(O)C(F)(F)F)Cc2cnc(-c3ccc(F)cc3)n21` [Compound A52, (R)-3,3,3-Trifluoro-1-[(R)-3-(4-fluoro-phenyl)-5-methyl-5,6-dihydro-8H-imidazo[1,5-a]pyrazin-7-yl]-2-hydroxy-2-methyl-propan-1-one] the IC50 ([1]; Homo sapiens, HEK-293T) was less than 300 nM, the Kd [2] was less than 300 nM and the IC50 [3] was less than 300 nM.
For `C[C@@](O)(C(=O)N1CCc2c(cnn2-c2ccc(F)cc2)C1)C(F)(F)F` [Compound A4, (R)-3,3,3-Trifluoro-1-[1-(4-fluoro-phenyl)-1,4,6,7-tetrahydro-pyrazolo[4,3-c]pyridin-5-yl]-2-hydroxy-2-methyl-propan-1-one], the IC50 ([1]; Homo sapiens, HEK-293T) was 300 to 3000 nM, the Kd [2] was less than 300 nM and the IC50 [3] was less than 300 nM.
With `C[C@@](O)(C(=O)N1CCc2nn(-c3ccc(F)cc3F)cc2C1)C(F)(F)F` [Compound A6, (R)-1-[2-(2,4-Difluoro-phenyl)-2,4,6,7-tetrahydro-pyrazolo[4,3-c]pyridin-5-yl]-3,3,3-trifluoro-2-hydroxy-2-methyl-propan-1-one] the IC50 ([1]; Homo sapiens, HEK-293T) was 3000 to 50000 nM, the Kd [2] was less than 300 nM and the IC50 [3] was 300 to 3000 nM.
`C[C@@](O)(C(=O)N1CCn2c(cnc2-c2ccccc2)C1)C(F)(F)F` [Compound A50, (R)-3,3,3-Trifluoro-2-hydroxy-2-methyl-1-(3-phenyl-5,6-dihydro-8H-imidazo-[1,5-a]pyrazin-7-yl)-propan-1-one] was tested, and the IC50 ([1]; Homo sapiens, HEK-293T) was 3000 to 50000 nM, the Kd [2] was less than 300 nM and the IC50 [3] was 300 to 3000 nM.
In the case of `COc1ncc(F)c(-n2ncc3c2[C@@H](C)CN(C(=O)[C@@](C)(O)C(F)(F)F)C3)n1` [Compound A37, (R)-3,3,3-Trifluoro-1-[(S)-1-(5-fluoro-2-methoxy-pyrimidin-4-yl)-7-methyl-1,4,6,7-tetrahydro-pyrazolo[4,3-c]pyridin-5-yl]-2-hydroxy-2-methyl-propan-1-one], the IC50 ([1]; Homo sapiens, HEK-293T) is reported as 3000 to 50000 nM, the Kd [2] is reported as 300 to 3000 nM and the IC50 [3] is reported as 300 to 3000 nM.
`C[C@@](O)(C(=O)N1CCc2c(ncn2-c2ccc(Cl)cc2)C1)C(F)(F)F` [Compound A45, (R)-1-[1-(4-Chloro-phenyl)-1,4,6,7-tetrahydro-imidazo[4,5-c]pyridin-5-yl]-3,3,3-trifluoro-2-hydroxy-2-methyl-propan-1-one] was tested, and the IC50 ([1]; Homo sapiens, HEK-293T) was 3000 to 50000 nM and the IC50 [3] was 300 to 3000 nM.
`C[C@@H]1CN(C(=O)[C@@](C)(O)C(F)(F)F)Cc2cnn(-c3ncc(F)cc3F)c21` [Compound A34, (R)-1-[(R)-1-(3,5-Difluoro-pyridin-2-yl)-7-methyl-1,4,6,7-tetrahydro-pyrazolo[4,3-c]pyridin-5-yl]-3,3,3-trifluoro-2-hydroxy-2-methyl-propan-1-one] was tested, and the IC50 ([1]; Homo sapiens, HEK-293T) was less than 300 nM, the Kd [2] was less than 300 nM and the IC50 [3] was less than 300 nM.
`C[C@H]1CN(C(=O)[C@@](C)(O)C(F)(F)F)Cc2cnn(-c3ccccc3)c21` [Compound A19, (R)-3,3,3-Trifluoro-2-hydroxy-2-methyl-1-((S)-7-methyl-1-phenyl-1,4,6,7-tetrahydro-pyrazolo[4,3-c]pyridin-5-yl)-propan-1-one] was tested, and the IC50 ([1]; Homo sapiens, HEK-293T) was 300 to 3000 nM and the IC50 [3] was 300 to 3000 nM.
`C[C@@H]1CN(C(=O)[C@@](C)(O)C(F)(F)F)Cc2cnn(-c3ccc(F)cc3F)c21` [Compound A20, (R)-1-[(R)-1-(2,4-Difluoro-phenyl)-7-methyl-1,4,6,7-tetrahydro-pyrazolo[4,3-c]pyridin-5-yl]-3,3,3-trifluoro-2-hydroxy-2-methyl-propan-1-one] was tested, and the IC50 ([1]; Homo sapiens, HEK-293T) was less than 300 nM, the Kd [2] was less than 300 nM and the IC50 [3] was less than 300 nM.
For `CC1CN(C(=O)[C@@](C)(O)C(F)(F)F)Cc2cn(-c3ccc(F)cc3)nc21` (stereo partly drawn) [Compound A13, (2R)-3,3,3-trifluoro-1-[2-(4-fluorophenyl)-7-methyl-6,7-dihydro-4H-pyrazolo[4,3-c]pyridin-5-yl]-2-hydroxy-2-methyl-propan-1-one], the IC50 ([1]; Homo sapiens, HEK-293T) was 3000 to 50000 nM, the Kd [2] was 300 to 3000 nM and the IC50 [3] was 300 to 3000 nM.
With `C[C@@H]1CN(C(=O)[C@@](C)(O)C(F)(F)F)Cc2cnn(-c3ccc(F)cc3)c21` [Compound A14, (R)-3,3,3-Trifluoro-1-[(R)-1-(4-fluoro-phenyl)-7-methyl-1,4,6,7-tetrahydro-pyrazolo[4,3-c]pyridin-5-yl]-2-hydroxy-2-methyl-propan-1-one] the IC50 ([1]; Homo sapiens, HEK-293T) was less than 300 nM, the Kd [2] was less than 300 nM and the IC50 [3] was less than 300 nM.
`C[C@@H]1CN(C(=O)[C@@](C)(O)C(F)(F)F)Cc2cnn(-c3ccccc3F)c21` [Compound A24, (R)-3,3,3-Trifluoro-1-[(R)-1-(2-fluoro-phenyl)-7-methyl-1,4,6,7-tetrahydro-pyrazolo[4,3-c]pyridin-5-yl]-2-hydroxy-2-methyl-propan-1-one] was tested, and the IC50 ([1]; Homo sapiens, HEK-293T) was less than 300 nM, the Kd [2] was less than 300 nM and the IC50 [3] was less than 300 nM.
Work on `C[C@@H]1CN(C(=O)[C@@](C)(O)C(F)(F)F)Cc2cnn(C(C)(C)C)c21` [Compound A22, (R)-1-((R)-1-tert-Butyl-7-methyl-1,4,6,7-tetrahydro-pyrazolo[4,3-c]pyridin-5-yl)-3,3,3-trifluoro-2-hydroxy-2-methyl-propan-1-one] yielded an IC50 ([1]; Homo sapiens, HEK-293T) of less than 300 nM, a Kd [2] of less than 300 nM and an IC50 [3] of less than 300 nM.
With `C[C@@](O)(C(=O)N1CCc2c(nnn2-c2ccccc2)C1)C(F)(F)F` [Compound A46, (R)-3,3,3-Trifluoro-2-hydroxy-2-methyl-1-(1-phenyl-1,4,6,7-tetrahydro-[1,2,3]triazolo[4,5-c]pyridin-5-yl)-propan-1-one] the IC50 ([1]; Homo sapiens, HEK-293T) was 3000 to 50000 nM, the Kd [2] was less than 300 nM and the IC50 [3] was 300 to 3000 nM.
`CC(C)(C)n1cc2c(n1)CCN(C(=O)[C@@](C)(O)C(F)(F)F)C2` [Compound A8, (R)-1-(2-tert-Butyl-2,4,6,7-tetrahydro-pyrazolo[4,3-c]pyridin-5-yl)-3,3,3-trifluoro-2-hydroxy-2-methyl-propan-1-one] was tested, and the IC50 ([1]; Homo sapiens, HEK-293T) was 3000 to 50000 nM, the Kd [2] was 300 to 3000 nM and the IC50 [3] was 300 to 3000 nM.
`CC1CN(C(=O)[C@@](C)(O)C(F)(F)F)Cc2cnn(-c3ccccc3)c21` (stereo partly drawn) [Compound A16, (R)-3,3,3-Trifluoro-2-hydroxy-2-methyl-1-(7-methyl-1-phenyl-1,4,6,7-tetra-hydro-pyrazolo[4,3-c]pyridin-5-yl)-propan-1-one] showed an IC50 ([1]; Homo sapiens, HEK-293T) of less than 300 nM, a Kd [2] of less than 300 nM and an IC50 [3] of less than 300 nM.
With `C[C@@](O)(C(=O)N1CCc2ncn(-c3ccccc3)c2C1)C(F)(F)F` [Compound A43, (R)-3,3,3-Trifluoro-2-hydroxy-2-methyl-1-(3-phenyl-3,4,6,7-tetrahydro-imidazo[4,5-c]pyridin-5-yl)-propan-1-one] the IC50 [1] was 300 to 3000 nM, the Kd [2] was less than 300 nM and the IC50 [3] was 300 to 3000 nM.
